Test results as given in US20150073008A1, “Topical Application of Vinca Alkaloids for the Treatment of Actinic Keratosis” (Merz Pharma GmbH & Co. KGaA, priority 2013, published 2015).
Where a name gives a salt, the structure may show the parent alone. Read-outs that look alike come from different tables or passages of the source.

Key:
SCC-111 cells [1] = details: for DCF-value: after repeating the experiments several times
[2] = tested on: proliferating and non-proliferating cells; experiment: Comparative test of cell density as a function of time (normal and high cell density); format: cell-based
SCC-111 cells [3] = experiment: cells; details: Homo sapiens, read-out: in vitro IC50-value (in SCC-111 cells)
[4] = tested on: human skin (Leiden epidermal skin); experiment: Methylthiazol Tetrazolium-Assay (MTT) skin irritation, in vitro human skin model; format: cell-based; details: doses of 100-times the in vitro IC50-values; irritant = metabolic activity of skin model reduced to ≦50%
Excerpt: This leads to the option to apply the vinca-compositions not only to single affected skin lesions (“spots”) but also to larger areas of the skin, e.g. for “field treatment”, and often even >5% (or >10%) of the skin surface (of the individual).

Stability at pH 5.5 = format: physicochemical
Experimental: Some topical formulations may have a reduced stability at a temperature of 37° C. and a pH-value of 7 or more, e.g. a pH-value of 7.4.

[5] = Dermal absorption study with human skin (Franz diffusion cells, 3H-API); details: different concentrations and formulations (cream, liposomes, hydro-tops)
Experimental: The vinca alkaloids were tested in different concentrations and in different formulations (such as cream, liposomes and hydro-tops).
Skin Preparations: Female human abdominal skins from plastic surgery were used. The subcutaneous fatty tissue was removed from the skin and then frozen at −20° C. with aluminium foil packed for later tests. Before use, skin disks of 18 mm diameter were punched, cleaned with PBS (phosphate buffered saline, pH 7.4, 10 mM) and thaw with the stratum corneum (SC) side up open to the atmosphere and the dermal side bathed with PBS for 2 hrs.
The dermal side of the skin was exposed to the receptor fluid (PBS) and the SC remained in contact with the donor compartment left dry and opened to the atmosphere. The temperature of the water bath was maintained at 37±0.1° C. The receptor solution was continuously stirred at 700 rpm with a small bar magnet placed inside the cell. Ten μl of Hydro-Tops or liposomes or 10 mg of the cream formulation were applied onto the skin's surface and uniformly spread by pipettes or spatula. The spatula was weighted again after the application of the cream to determine the applied dose. This means an application dose of 1 μg API per square cm. Samples (0.7 ml) were taken from the receptor fluid at 3, 6, 12, 18 and 24 hrs after application. At each point, the receptor cell content was replaced by 0.7 ml of fresh PBS solution. Three replicates were used for the studies (same skin preparations)
Tape Stripping: The distribution of API in the stratum corneum was determined by the tape stripping technique. After 24 hours the skin was taken, stretched and mounted with pins on cork discs and covered with aluminium mask with a central hole of 8 mm in diameter. […]
Measurement of 3H-API: The samples (standards, strips and fluids) were mixed with 12 ml Rotiszint eco plus (scintillation cocktail purchased from Carl Roth) and carefully vortexed for at least 1 minute. […] The activity in each sample was determined in a scintillation counter (Tri-Carb 2910TR Liquid Scintillation Analyzer; Perkin Elmer) by a standardized protocol.

Solubility = details: pH 6.5
[6] = IC50 in 0% FBS divided by IC50 in 20% FBS, SCC-111 cells
[7] = read-out: in vitro IC50-value (in SCC-111 cells), SCC-111 cells, serum condition not stated

Row | Compound | DCF-value (SCC-111 cells [1]; [6]) | IC50 (SCC-111 cells [3]) | skin irritation rating in MTT assay [4] | stability (compound remaining) (Stability at pH 5.5; buffer, 168 h, pH 5.5) | dermal absorption (in words) [5] | other results
1 | COc1cccc2c1C(=O)c1c(O)c3c(c(O)c1C2=O)C[C@@](O)(C(=O)CO)C[C@@H]3O[C@H]1C[C@H](N)[C@@H](O)[C@H](C)O1 [Epirubicin, Epirubicin HCL] | 6.05 | – | – | – | – | –
2 | O=c1[nH]cc(F)c(=O)[nH]1 [Example 5-FU, 5-Fluorouracil] | 0.73 | 960000 pM | – | – | – | effect on number of cells at normal (proliferating) and high (non-proliferating) cell density [2]: cells were affected, independent of their proliferation-status
3 | COc1cc([C@@H]2c3cc4c(cc3[C@@H](O[C@@H]3O[C@@H]5CO[C@@H](c6cccs6)O[C@H]5[C@H](O)[C@H]3O)[C@H]3COC(=O)[C@H]23)OCO4)cc(OC)c1O [Teniposide] | 5.76 | – | – | – | – | –
4 | CC[C@]1(O)C[C@H]2CN(CCc3c([nH]c4ccccc34)[C@@](C(=O)OC)(c3cc4c(cc3OC)N(C=O)[C@H]3[C@@](O)(C(=O)OC)[C@H](OC(C)=O)[C@]5(CC)C=CCN6CC[C@]43[C@@H]65)C2)C1 [Vincristine, Vincristine sulfate] | 5.86 | 920 pM | not rated as irritant | 99.6% | good dermal absorption | solubility in water (pH 5.5): 0.57 % by weight
5 | CC[C@]1(O)C[C@@H]2CN(CCc3c([nH]c4ccccc34)[C@@](C(=O)OC)(c3cc4c(cc3OC)N(C)[C@H]3[C@@](O)(C(N)=O)[C@H](O)[C@]5(CC)C=CCN6CC[C@]43[C@@H]65)C2)C1 [Vindesine, Vindesine sulfate hydrate] | 11.43 | – | not rated as irritant | 98.8% | good dermal absorption | DCF-value (differential cytotoxicity factor) from FIGS. 1 and 2 (SCC-111 cells [1]; IC50 in 0% FBS divided by IC50 in 20% FBS, single example experiment): > 10; IC50 (SCC-111 cells [1]; read-out: IC50-value, 0% FBS medium cultivated cells (FIG. 2), SCC-111, 0% FBS (low proliferation), DNA-content, 72 hours): 3500 pM; IC50 (SCC-111 cells [1]; read-out: IC50-value, 20% FBS medium cultivated cells (FIG. 1), SCC-111, 20% FBS (high proliferation), DNA-content, 72 hours): 340 pM; IC50 (SCC-111 cells [1]; [7]): 570 pM
6 | CCC1=C[C@@H]2CN(C1)Cc1c([nH]c3ccccc13)[C@@](C(=O)OC)(c1cc3c(cc1OC)N(C)[C@H]1[C@@](O)(C(=O)OC)[C@H](OC(C)=O)[C@]4(CC)C=CCN5CC[C@]31[C@@H]54)C2 [Vinorelbine] | 6.42 | 1340 pM | not rated as irritant | 99.5% | good dermal absorption | solubility (pH 6.5): 0.7%
7 | Vinblastine sulfate hydrate | 19.87 | – | not rated as irritant | – | – | solubility (Solubility): 0.25%; stability (compound remaining) (Stability at pH 5.5; pH 5.5, test for 7 days, 5° C.): 97%; IC50 (SCC-111 cells [1]; [7]): 870 pM
